biological target: T1, PARP1 (Homo sapiens, UniProt P09874); assay: In-Cell Western measurement of PARylation in PARP1 WT and knockout cells; format: cell-based; details: HeLa cells (wide-type with PARP1 gene); hydrogen peroxide-induced PARylation; compounds 30 min, then 10 mM hydrogen peroxide 15 min; read-out: HeLa_WT_IC50
T1 construct: HeLa cells (wide-type with PARP1 gene) were purchased from ATCC; host or cells: HeLa (wild type)
From the text: The purpose of this cell-based assay is to measure the potency and selectivity of synthesized PARP inhibitors in suppressing hydrogen peroxide-induced PARylation in cells with and without PARP1 expression. Several cell lines were used in this assay. The human PARP1 knockout HEK-293T cell line (#ab266598) was purchased from Abcam, and its corresponding wide-type control is the human wild-type HEK-293T cell line (#ab255449). The HAP1 isogenic cell lines with and without the PARP1 gene (#HZGHC003943c006) were purchased from Horizon Discovery. HeLa cells (wide-type with PARP1 gene) were purchased from ATCC. Cells were cultured using complete medium containing 10% fetal bovine serum. One day before the assay, cells were seeded in 96-well plates at the density of 20,000 cells per well in 100 uL complete medium. Compounds were dissolved using DMSO and diluted to the working concentrations using complete medium. Cells were pre-treated with compounds for 30 min and then stimulated with 10 mM hydrogen peroxide for 15 min. After stimulation, cells were immediately fixed using ice-cold methanol for 20 min. After fixation, cells were washed using 1×PBST buffer for 3 times, 5 min each time, to eliminate residual methanol. Cells were blocked for 2 h at room temperature in blocking buffer (LI-COR Biosciences, #927-70001). Primary antibody was diluted in diluent buffer (LI-COR Biosciences, #927-75001, 1:200) at 50 uL per well. Cells were incubated with the primary antibody at 4° C. for 18 h. The wells were then washed using 1×PBST for 3 times, 5 min each time. IRDye® 680RD Goat anti-Mouse IgG (H+L) secondary antibody was diluted at 1/2000 using the diluent buffer and added at 100 μL per well. Secondary antibody incubation was for 1 h at room temperature. Cells were then washed using 1×PBST for 3 times, 5 min each time. The signal was detected and analyzed using LI-COR Odyssey DLx Imaging system. Data were collected and further processed using GraphPad Prism for IC50 estimation.

T1 sequence (P09874 whole entry): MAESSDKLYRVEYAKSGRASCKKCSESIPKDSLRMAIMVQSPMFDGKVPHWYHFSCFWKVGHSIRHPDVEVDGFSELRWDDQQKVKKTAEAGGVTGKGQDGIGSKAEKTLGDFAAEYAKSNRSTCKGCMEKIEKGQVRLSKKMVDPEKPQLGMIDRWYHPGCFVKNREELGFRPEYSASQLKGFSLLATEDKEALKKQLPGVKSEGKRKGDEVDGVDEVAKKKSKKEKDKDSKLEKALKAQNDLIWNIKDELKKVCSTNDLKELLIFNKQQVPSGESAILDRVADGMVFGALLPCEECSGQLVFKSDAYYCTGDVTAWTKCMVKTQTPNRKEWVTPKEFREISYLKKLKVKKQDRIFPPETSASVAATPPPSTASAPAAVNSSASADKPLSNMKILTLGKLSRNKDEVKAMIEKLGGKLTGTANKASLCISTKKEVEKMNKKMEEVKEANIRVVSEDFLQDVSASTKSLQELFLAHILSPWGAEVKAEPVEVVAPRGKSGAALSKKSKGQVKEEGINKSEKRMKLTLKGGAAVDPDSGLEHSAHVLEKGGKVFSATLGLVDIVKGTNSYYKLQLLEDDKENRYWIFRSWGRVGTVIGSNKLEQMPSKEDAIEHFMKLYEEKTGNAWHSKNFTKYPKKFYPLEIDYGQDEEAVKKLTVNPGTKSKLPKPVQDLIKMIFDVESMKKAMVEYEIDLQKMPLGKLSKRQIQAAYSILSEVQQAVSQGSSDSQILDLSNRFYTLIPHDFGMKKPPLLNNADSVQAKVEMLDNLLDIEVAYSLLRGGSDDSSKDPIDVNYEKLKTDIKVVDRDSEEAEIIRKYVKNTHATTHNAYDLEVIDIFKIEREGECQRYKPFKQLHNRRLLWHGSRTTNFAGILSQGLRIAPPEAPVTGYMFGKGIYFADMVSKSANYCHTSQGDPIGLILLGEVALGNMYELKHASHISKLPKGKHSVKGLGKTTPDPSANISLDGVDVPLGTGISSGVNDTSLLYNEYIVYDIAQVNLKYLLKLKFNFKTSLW

CCN1C(=O)Nc2c(F)c(CN3CCN(c4ccc(C(=O)NC5CC5)nc4C)CC3)cc3ncnc1c23 [Compound I-55, N-cyclopropyl-5-(4-((3-ethyl-9-fluoro-2-oxo-2,3-dihydro-1H-pyrimido[4,5,6-de]quinazolin-8-yl)methyl)piperazin-1-yl)-6-methylpicolinamide] and CCN1C(=O)Nc2c(F)c(CN3CCN(c4ccc(C(=O)N[C@@H]5CCOC5)nc4C)CC3)cc3ncnc1c23 [Compound I-67, (R)-5-(4-((3-ethyl-9-fluoro-2-oxo-2,3-dihydro-1H-pyrimido[4,5,6-de]quinazolin-8-yl)methyl)piperazin-1-yl)-6-methyl-N-(tetrahydrofuran-3-yl)picolinamide] cannot be ordered by IC50: ≤ 10 nM for the first, ≤ 10 nM for the second.

CCN1C(=O)Nc2c(F)c(CN3CCN(c4ccc(C(=O)NC5CC5)nc4C)CC3)cc3c(C)nnc1c23 [Compound I-56, N-cyclopropyl-5-(4-((9-ethyl-6-fluoro-3-methyl-8-oxo-8,9-dihydro-7H-pyridazino[3,4,5-de]quinazolin-5-yl)methyl)piperazin-1-yl)-6-methylpicolinamide] and CCN1C(=O)Nc2c(F)c(CN3CCN(c4ccc(C(=O)NC5CC5)nc4C)CC3)cc3c(=O)n(C)nc1c23 [Compound I-80, N-cyclopropyl-5-(4-((9-ethyl-6-fluoro-2-methyl-3,8-dioxo-2,7,8,9-tetrahydro-3H-pyridazino[3,4,5-de]quinazolin-5-yl)methyl)piperazin-1-yl)-6-methylpicolinamide] cannot be ordered by IC50: ≤ 10 nM for the first, 10 to 100 nM for the second.

CCN1C(=O)Nc2c(F)c(CN3CCN(c4ccc(C(=O)NOC)nc4C)CC3)cc3ncnc1c23 [Compound I-57, 5-(4-((3-Ethyl-9-fluoro-2-oxo-2,3-dihydro-1H-pyrimido[4,5,6-de]quinazolin-8-yl)methyl)piperazin-1-yl)-N-methoxy-6-methylpicolinamide] and CCN1C(=O)Nc2c(F)c(CN3CCN(c4ccc(C(=O)NC5(COC)CC5)nc4C)CC3)cc3ncnc1c23 [Compound I-66, 5-(4-((3-ethyl-9-fluoro-2-oxo-2,3-dihydro-1H-pyrimido[4,5,6-de]quinazolin-8-yl)methyl)piperazin-1-yl)-N-(1-(methoxymethyl)cyclopropyl)-6-methylpicolinamide] cannot be ordered by IC50: ≤ 10 nM for the first, ≤ 10 nM for the second.

CCN1C(=O)Nc2c(F)c(CN3CCN(c4ccc(C(=O)NOCC5CC5)nc4C)CC3)cc3ncnc1c23 [Compound I-58, N-(cyclopropylmethoxy)-5-(4-((3-ethyl-9-fluoro-2-oxo-2,3-dihydro-1H-pyrimido[4,5,6-de]quinazolin-8-yl)methyl)piperazin-1-yl)-6-methylpicolinamide] and CCN1C(=O)Nc2c(F)c(CN3CCN(c4ccc(C(=O)N[C@@H]5CCN(C)C5)nc4C)CC3)cc3ncnc1c23 [Compound I-77, (R)-5-(4-((3-ethyl-9-fluoro-2-oxo-2,3-dihydro-1H-pyrimido[4,5,6-de]quinazolin-8-yl)methyl)piperazin-1-yl)-6-methyl-N-(1-methylpyrrolidin-3-yl)picolinamide] cannot be ordered by IC50: ≤ 10 nM for the first, 10 to 100 nM for the second.

CCN1C(=O)Nc2c(F)c(CN3CCN(c4ccc(C(=O)NC5(CO)CC5)nc4C)CC3)cc3ncnc1c23 [Compound I-59, 5-(4-((3-ethyl-9-fluoro-2-oxo-2,3-dihydro-1H-pyrimido[4,5,6-de]quinazolin-8-yl)methyl)piperazin-1-yl)-N-(1-(hydroxymethyl)cyclopropyl)-6-methylpicolinamide] and CCN1C(=O)Nc2c(F)c(CN3CCN(c4ccc(C(=O)NC5(CC#N)CC5)nc4C)CC3)cc3ncnc1c23 [Compound I-79, N-(1-(cyanomethyl)cyclopropyl)-5-(4-((3-ethyl-9-fluoro-2-oxo-2,3-dihydro-1H-pyrimido[4,5,6-de]quinazolin-8-yl)methyl)piperazin-1-yl)-6-methylpicolinamide] cannot be ordered by IC50: ≤ 10 nM for the first, ≤ 10 nM for the second.

CCN1C(=O)Nc2c(F)c(CN3CCN(c4ccc(C(=O)N[C@H]5C[C@H](C#N)C5)nc4C)CC3)cc3ncnc1c23 [Compound I-60, N-((1r,3r)-3-cyanocyclobutyl)-5-(4-((3-ethyl-9-fluoro-2-oxo-2,3-dihydro-1H-pyrimido[4,5,6-de]quinazolin-8-yl)methyl)piperazin-1-yl)-6-methylpicolinamide] and CCN1C(=O)Nc2c(F)c(CN3CCN(c4ccc(C(=O)N[C@H]5C[C@@H](C#N)C5)nc4C)CC3)cc3ncnc1c23 [Compound I-65, N-((1s,3s)-3-cyanocyclobutyl)-5-(4-((3-ethyl-9-fluoro-2-oxo-2,3-dihydro-1H-pyrimido[4,5,6-de]quinazolin-8-yl)methyl)piperazin-1-yl)-6-methylpicolinamide] cannot be ordered by IC50: ≤ 10 nM for the first, ≤ 10 nM for the second.

CCN1C(=O)Nc2c(F)c(CN3CCN(c4ccc(C(=O)NC5(C#N)CC5)nc4C)CC3)cc3ncnc1c23 [Compound I-62, N-(1-cyanocyclopropyl)-5-(4-((3-ethyl-9-fluoro-2-oxo-2,3-dihydro-1H-pyrimido[4,5,6-de]quinazolin-8-yl)methyl)piperazin-1-yl)-6-methylpicolinamide] and CCN1C(=O)Nc2c(F)c(CN3CCN(c4ccc(C(=O)NC5CN(C)C5)nc4C)CC3)cc3ncnc1c23 [Compound I-71, 5-(4-((3-ethyl-9-fluoro-2-oxo-2,3-dihydro-1H-pyrimido[4,5,6-de]quinazolin-8-yl)methyl)piperazin-1-yl)-6-methyl-N-(1-methylazetidin-3-yl)picolinamide] cannot be ordered by IC50: ≤ 10 nM for the first, ≤ 10 nM for the second.

CCN1C(=O)Nc2c(F)c(CN3CCN(c4ccc(C(=O)N[C@H]5CCCOC5)nc4C)CC3)cc3ncnc1c23 [Compound I-63, (S)-5-(4-((3-ethyl-9-fluoro-2-oxo-2,3-dihydro-1H-pyrimido[4,5,6-de]quinazolin-8-yl)methyl)piperazin-1-yl)-6-methyl-N-(tetrahydro-2H-pyran-3-yl)picolinamide] and CCN1C(=O)Nc2c(F)c(CN3CCN(c4ccc(C(=O)N[C@H]5CCOC5)nc4C)CC3)cc3ncnc1c23 [Compound I-73, (S)-5-(4-((3-ethyl-9-fluoro-2-oxo-2,3-dihydro-1H-pyrimido[4,5,6-de]quinazolin-8-yl)methyl)piperazin-1-yl)-6-methyl-N-(tetrahydrofuran-3-yl)picolinamide] cannot be ordered by IC50: ≤ 10 nM for the first, ≤ 10 nM for the second.

CCN1C(=O)Nc2c(F)c(CN3CCN(c4ccc(C(=O)N[C@@H]5[C@@H]6COC[C@@H]65)nc4C)CC3)cc3ncnc1c23 [Compound I-69, N-((1R,5S,6s)-3-oxabicyclo[3.1.0]hexan-6-yl)-5-(4-((3-ethyl-9-fluoro-2-oxo-2,3-dihydro-1H-pyrimido[4,5,6-de]quinazolin-8-yl)methyl)piperazin-1-yl)-6-methylpicolinamide] and CCN1C(=O)Nc2c(F)c(CN3CCN(c4ccc(C(=O)N[C@H]5[C@@H]6COC[C@@H]65)nc4C)CC3)cc3ncnc1c23 [Compound I-70, N-((1R,5S,6r)-3-oxabicyclo[3.1.0]hexan-6-yl)-5-(4-((3-ethyl-9-fluoro-2-oxo-2,3-dihydro-1H-pyrimido[4,5,6-de]quinazolin-8-yl)methyl)piperazin-1-yl)-6-methylpicolinamide] cannot be ordered by IC50: 10 to 100 nM for the first, ≤ 10 nM for the second.

CCN1C(=O)Nc2c(F)c(CN3CCN(c4ccc(C(=O)N[C@H]5CC[C@@H](C#N)CC5)nc4C)CC3)cc3ncnc1c23 [Compound I-74, N-((1s,4s)-4-cyanocyclohexyl)-5-(4-((3-ethyl-9-fluoro-2-oxo-2,3-dihydro-1H-pyrimido[4,5,6-de]quinazolin-8-yl)methyl)piperazin-1-yl)-6-methylpicolinamide] and CCN1C(=O)Nc2c(F)c(CN3CCN(c4ccc(C(=O)N[C@H]5CC[C@H](C#N)CC5)nc4C)CC3)cc3ncnc1c23 [Compound I-75, N-((1r,4r)-4-cyanocyclohexyl)-5-(4-((3-ethyl-9-fluoro-2-oxo-2,3-dihydro-1H-pyrimido[4,5,6-de]quinazolin-8-yl)methyl)piperazin-1-yl)-6-methylpicolinamide] fall in the same range of IC50: 10 to 100 nM for the first, 10 to 100 nM for the second.

CCN1C(=O)Nc2c(F)c(CN3CCN(c4ccc(C(=O)N[C@H]5CCN(C)C5)nc4C)CC3)cc3ncnc1c23 [Compound I-78, (S)-5-(4-((3-ethyl-9-fluoro-2-oxo-2,3-dihydro-1H-pyrimido[4,5,6-de]quinazolin-8-yl)methyl)piperazin-1-yl)-6-methyl-N-(1-methylpyrrolidin-3-yl)picolinamide] and CCN1C(=O)Nc2c(F)c(CN3CCN(c4ccc(C(=O)NC5CC5)cc4C)CC3)cc3ncnc1c23 [Compound I-82, N-cyclopropyl-4-(4-((3-ethyl-9-fluoro-2-oxo-2,3-dihydro-1H-pyrimido[4,5,6-de]quinazolin-8-yl)methyl)piperazin-1-yl)-3-methylbenzamide] cannot be ordered by IC50: ≤ 10 nM for the first, ≤ 10 nM for the second.

CCN1C(=O)Nc2c(F)c(CN3CCN(c4ccc(C(=O)NC5CC5)cc4F)CC3)cc3ncnc1c23 [Compound I-86, N-cyclopropyl-4-(4-((3-ethyl-9-fluoro-2-oxo-2,3-dihydro-1H-pyrimido[4,5,6-de]quinazolin-8-yl)methyl)piperazin-1-yl)-3-fluorobenzamide] was tested, and the IC50 was 10 to 100 nM.

Source: US20250163022A1, “PARP1 INHIBITORS” (Synnovation Therapeutics, Inc., priority 2021, published 2025)
